Source: US8466163B2 (Bionomics Limited, priority 2006, dated 2013)

Columns and labels:
[1] = tested on: Activated human umbilical vein endothelial cells (HUVECs); experiment: Inhibition of proliferation of activated HUVEC cells; format: cell-based; conditions: concentration required to inhibit proliferation by 50%, value falls within the range of concentrations given or >1000 nM
[2] = tested on: tubulin; experiment: Tubulin polymerisation inhibitor (TPI) assay; format: biochemical; conditions: concentration required to inhibit the extent of tubulin polymerisation by 50%

Compound | IC50 [1] | IC50 [2] | IC50 ([1]; Homo sapiens, HUVEC)
6-(3-amino-4-methoxyphenyl)-5-(3-hydroxy-4,5-dimethoxyphenyl)furo[2,3-d]pyrimidin-2(1H)-one hydrochloride [Example 10] | > 1 µM |  | 
COc1ccc(-c2oc3[nH]c(=O)ncc3c2-c2cc(OC)c(OC)c(OC)c2)cc1 [Example 1] |  | 2 µM | 0.01 to 0.1 µM
COc1ccc(-c2c(-c3cc(OC)c(OC)c(OC)c3)oc3[nH]c(=O)ncc23)cc1 [Example 2, 6-(2-(3,4,5-trimethoxyphenyl))-5-(4-methoxyphenyl)furo[2,3-d]pyrimidin-2(1H)-one] |  | 4 to 10 µM | 0.1 to 1 µM
COc1cc(-c2c(-c3ccco3)oc3[nH]c(=O)ncc23)cc(OC)c1OC [Example 3, 6-(2-furyl)-5-(3,4,5-trimethoxyphenyl)furo[2,3-d]pyrimidin-2(11)-one] |  |  | > 1 µM
COc1cc(-c2c(-c3ccc4c(ccn4C)c3)oc3[nH]c(=O)ncc23)cc(OC)c1OC [Example 4, 6-(1-Methyl-1H-indol-5-yl)-5-(3,4,5-trimethoxy-phenyl)-1H-furo[2,3-d]pyrimidin-2-one] |  |  | 0.001 to 0.01 µM
COc1ccc(-c2oc3[nH]c(=O)ncc3c2-c2cc(OC)c(OC)c(OC)c2)cn1 [Example 5, 6-(6-methoxypyridin-3-yl)-5-(3,4,5-trimethoxyphenyl)furo[2,3-d]pyrimidin-2(1H)-one] |  |  | 0.1 to 1 µM
COc1ccc(-c2oc3[nH]c(=O)ncc3c2-c2cc(OC)c(OC)c(OC)c2)cc1O [Example 7, 6-(3-Hydroxy-4-methoxy-phenyl)-5-(3,4,5-trimethoxy-phenyl)-1H-furo[2,3-d]pyrimidinone] |  |  | 0.01 to 0.1 µM
COc1ccc(-c2oc3[nH]c(=O)ncc3c2-c2cc(OC)c(OC)c(OC)c2)c(O)c1O [Example 8, 6-(2,3-Dihydroxy-4-methoxy-phenyl)-5-(3,4,5-trimethoxy-phenyl)-1H-furo[2,3-d]pyrimidin-2-one] |  |  | > 1 µM
COc1ccc(-c2oc3[nH]c(=O)ncc3c2C(=O)c2cc(OC)c(OC)c(OC)c2)cc1 [Example 13] |  | > 40 µM | 
COc1ccc(-c2oc3c(cnc(=O)n3C)c2C(=O)c2cc(OC)c(OC)c(OC)c2)cc1 [Example 15] |  | > 40 µM | 
COc1ccc(-c2oc3nc(Cl)ncc3c2-c2cc(OC)c(OC)c(OC)c2)cc1 [Example 16, 2-Chloro-6-(4-methoxyphenyl)-5-(3,4,5-trimethoxy-phenyl)-furo[2,3-d]pyrimidine] |  | 10 to 40 µM | 
COc1ccc(-c2oc3nc(OC)ncc3c2-c2cc(OC)c(OC)c(OC)c2)cc1 [Example 17, 2-Methoxy-6-(4-methoxyphenyl)-5-(3,4,5-trimethoxyphenyl)-furo[2,3-d]pyrimidine] |  | > 40 µM | 
COc1ccc(-c2sc3nc(SC)ncc3c2C(=O)c2cc(OC)c(OC)c(OC)c2)cc1 [Example 18, 2-Thiomethoxy-6-(4-methoxyphenyl)-5-(3,4,5-trimethoxybenzoyl)-thiopheno [2,3-d]pyrimidine] |  | > 40 µM | 
COc1ccc(-c2sc3nc(OC)ncc3c2C(=O)c2cc(OC)c(OC)c(OC)c2)cc1 [Example 19, 2-Methoxy-6-(4-methoxyphenyl)-5-(3,4,5-trimethoxybenzoyl)-thiopheno[2,3-d]pyrimidine] |  | > 40 µM | > 1 µM
COc1ccc(-c2oc3nc(OC)ccc3c2C(=O)c2cc(OC)c(OC)c(OC)c2)cc1 [Example 20, 6-methoxy-2-(4-methoxyphenyl)-3-(3,4,5-trimethoxybenzoyl)furo[2,3-b]pyridine] |  | ~2 µM | 0.1 to 1 µM
COc1ccc(-c2oc3nc(OC)ccc3c2-c2cc(OC)c(OC)c(OC)c2)cc1 [Example 21, 6-methoxy-2-(4-methoxyphenyl)-3-(3,4,5-trimethoxyphenyl)furo[2,3-b]pyridine] |  | > 40 µM | 
COc1ccc(-c2oc3cc(OC)cnc3c2C(=O)c2cc(OC)c(OC)c(OC)c2)cc1 [Example 22, 6-methoxy-2-(4-methoxyphenyl)-3-(3,4,5-trimethoxybenzoyl)furo [3,2-b]pyridine] |  | < 4 µM | 0.1 to 1 µM
COc1ccc(-c2oc3cc(OC)cnc3c2-c2cc(OC)c(OC)c(OC)c2)cc1 [Example 23, 6-methoxy-2-(4-methoxyphenyl)-3-(3,4,5-trimethoxyphenyl)furo[3,2-b]pyridine] |  | ~10 µM | > 1 µM
COc1ccc(-c2oc3cc(OC)ncc3c2C(=O)c2cc(OC)c(OC)c(OC)c2)cc1 [Example 24, 6-methoxy-2-(4-methoxyphenyl)-3-(3,4,5-trimethoxybenzoyl)furo[3,2-c]pyridine] |  | < 4 µM | 0.1 to 1 µM
COc1ccc(-c2oc3nc(OC)cnc3c2C(=O)c2cc(OC)c(OC)c(OC)c2)cc1 [Example 25, 3-methoxy-6-(4-methoxyphenyl)-7-(3,4,5-trimethoxybenzoyl)furo[2,3-b]pyrazine] |  | < 4 µM | 0.01 to 0.1 µM
COc1ccc(-c2oc3[nH]c(=O)ccc3c2-c2cc(OC)c(OC)c(OC)c2)cc1 [Example 26, 2-(4-Methoxyphenyl)-3-(3,4,5-trimethoxyphenyl)furo[2,3-b]pyridin-6-one] |  |  | 0.1 to 1 µM
COc1ccc(-c2oc3nc(OC)ncc3c2C(=O)c2cc(OC)c(OC)c(OC)c2)cc1 [Example 27] |  |  | 0.1 to 1 µM
COc1ccc(-c2oc3c(Br)c(OC)cnc3c2C(=O)c2cc(OC)c(OC)c(OC)c2)cc1 [Example 28, 7-Bromo-6-methoxy-2-(4-methoxyphenyl)-3-(3,4,5-trimethoxybenzoyl)-furo[3,2-b]pyridine] |  |  | 0.1 to 1 µM
COc1cc(C(=O)c2c(-c3cnn(C)c3)oc3c(=O)c(OC)c[nH]c23)cc(OC)c1OC [Example 30, 6-Methoxy-2-(1-methyl-1H-pyrazol-4-yl)-3-(3,4,5-trimethoxybenzoyl)-4H-furo[3,2-b]pyridin-7-one] |  |  | > 1 µM
